Tests used:
Set-up in all cases: key: “+” indicates that the compound exibits inhibitory activity; “−” indicates that low or no inhibitory activity was observed
[1] = biological target: MDM2 / p53 substrate (Homo sapiens, UniProt Q00987); assay: Plate-based MDM2 substrate ligation assay (MDM2-P53-FLAG); assay type: biochemical; conditions: 8 concentrations tested
Description: This assay was preformed essentially as described in WO 03/076899 (page 77, line 5 to page 80, line 13), hereby incorporated by reference in its entirety.

[2] = biological target: E3 (His-APC11/APC2-"APC") (Homo sapiens, UniProt Q9NYG5+Q9UJX6); assay: Plate-based E3 ligase assay (APC FLAG), auto-ubiquitination; assay type: biochemical; conditions: 8 concentrations tested
Sequence of E3 (His-APC11/APC2-"APC") (Q9NYG5 whole entry): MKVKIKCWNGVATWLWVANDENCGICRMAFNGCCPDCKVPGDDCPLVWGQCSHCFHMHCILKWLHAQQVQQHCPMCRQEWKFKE
Sequence of E3 (His-APC11/APC2-"APC") (Q9UJX6 whole entry): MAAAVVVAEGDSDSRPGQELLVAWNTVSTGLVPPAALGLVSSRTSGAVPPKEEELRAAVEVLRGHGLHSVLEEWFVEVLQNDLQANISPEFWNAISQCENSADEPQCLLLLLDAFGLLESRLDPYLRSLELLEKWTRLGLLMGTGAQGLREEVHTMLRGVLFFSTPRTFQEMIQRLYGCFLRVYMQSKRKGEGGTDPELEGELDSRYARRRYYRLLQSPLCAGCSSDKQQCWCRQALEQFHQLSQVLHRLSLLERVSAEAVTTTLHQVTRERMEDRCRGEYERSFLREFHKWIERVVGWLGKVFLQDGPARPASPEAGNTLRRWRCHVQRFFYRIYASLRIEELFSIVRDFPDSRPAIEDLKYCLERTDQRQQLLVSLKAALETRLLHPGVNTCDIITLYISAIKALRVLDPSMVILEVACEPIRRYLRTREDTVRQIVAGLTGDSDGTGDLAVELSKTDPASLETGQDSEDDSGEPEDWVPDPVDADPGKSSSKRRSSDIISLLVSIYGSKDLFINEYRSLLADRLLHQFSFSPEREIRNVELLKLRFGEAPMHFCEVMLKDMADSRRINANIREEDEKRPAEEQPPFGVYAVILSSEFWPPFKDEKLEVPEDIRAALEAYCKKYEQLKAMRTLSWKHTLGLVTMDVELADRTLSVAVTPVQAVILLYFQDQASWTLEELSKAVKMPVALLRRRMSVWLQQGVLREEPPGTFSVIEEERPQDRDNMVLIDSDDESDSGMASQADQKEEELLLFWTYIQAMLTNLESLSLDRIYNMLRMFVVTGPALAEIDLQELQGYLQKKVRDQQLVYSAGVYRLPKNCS
Outline: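 His-APC11/APC2 auto-ubiquitination was run in casein-blocked nickel plates for 1 h at room temperature, with E1 at 5 ng/well, UbcH5c at 20 ng/well and APC at 100 ng/well. Buffer was 62.5 mM Tris pH 7.6, 3 mM MgCl2, 1 mM DTT, 2.5 mM ATP and Flag-ubiquitin at 100 ng/well. Detection used anti-Flag/HRP chemiluminescence, and IC50 was typically from 6 or 8 concentrations versus a DMSO control.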

[3] = biological target: E3 MDM2 (Homo sapiens, UniProt Q00987); assay: Plate-based autoubiquitination of the E3 MDM2 (MDM2-FLAG); assay type: biochemical; conditions: 8 concentrations tested
Sequence of E3 MDM2 (Q00987 whole entry): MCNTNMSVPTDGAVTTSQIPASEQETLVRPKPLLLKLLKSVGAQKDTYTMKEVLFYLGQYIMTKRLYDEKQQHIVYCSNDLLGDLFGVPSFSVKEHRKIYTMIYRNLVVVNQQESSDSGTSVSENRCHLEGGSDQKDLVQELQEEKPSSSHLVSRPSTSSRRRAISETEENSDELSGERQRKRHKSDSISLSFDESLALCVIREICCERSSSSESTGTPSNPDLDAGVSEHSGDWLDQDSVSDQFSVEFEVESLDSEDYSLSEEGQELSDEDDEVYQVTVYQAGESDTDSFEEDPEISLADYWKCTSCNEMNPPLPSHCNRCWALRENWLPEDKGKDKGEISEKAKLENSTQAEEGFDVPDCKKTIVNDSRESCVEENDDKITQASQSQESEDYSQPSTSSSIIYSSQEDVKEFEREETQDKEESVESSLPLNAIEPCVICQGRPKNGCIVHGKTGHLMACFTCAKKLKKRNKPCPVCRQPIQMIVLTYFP
Protocol: E3 (His-APC11/APC2-“APC”) auto-ubiquitination was measured as described in U.S. patent application Ser. No. 09/826,312 (Publication No. US-2002-0042083-A1), which is incorporated herein in its entirety. Details of the protocol are described below. Activity in the presence of the compound was determined relative to a parallel control in which only DMSO was added. Values of the IC50 were typically determined using 6 or 8 different concentrations of the compound, although as few as 2 concentrations may be used to approximate the IC50 value.
Nickel-coated 96-well plates (Pierce 15242) were blocked for 1 hour with 100 μl of blocking buffer at room temperature. The plates were washed 4 times with 225 μl of 1×PBS and 80 μl of the reaction buffer were added that contained 100 ng/well of Flag-ubiquitin. To this, 10 μl of the test compound diluted in DMSO were added. After the test compound was added, 10 μl of E1 (human), E2 (Ubch5c), and APC in Protein Buffer was added to obtain a final concentration of 5 ng/well of E1, 20 ng/well of E2 and 100 ng/well of APC. The plate were shaken for 10 minutes and incubated at room temperature for 1 hour. After incubation, the plates were washed 4 times with 225 μl of 1×PBS and 100 μl/well of Antibody Mix were added to each well. The plates were incubate at room temperature for another hour after which they were washed 4 times with 225 μl of 1×PBS and 100 μl/well of Lumino substrate were added to each well. The luminescence was measured by using a BMG luminescence microplate reader.
To prepare the Blocking Buffer (1 liter; 1% Casein in 1×PBS), 10 grams of Casein (Hammersten Grade Casein from Gallard-Schlesinger Inc. #440203) were placed into 1 liter of 1×PBS, stirred on a hot plate and kept between 50-60° C. for an hour. The buffer was allowed to cool to room temperature and then filtered using a Buchner Funnel (Buchner filter funnel 83 mm 30310-109) and Whatman filter paper (Whatman Grade No. 1 Filter paper 28450-070). It was stored at 4° C. until used.
The reaction buffer consisted of 62.5 mM Tris pH 7.6 (Trizma Base—Sigma T-8524), 3 mM MgCl2 (Magnesium Chloride—Sigma M-2393), 1 mM DTT (Sigma D-9779), 2.5 mM ATP (Roche Boehringer Mann Corp. 635-316), 100 ng/well of Flag-ubiquitin, 0.1% BSA (Sigma A-7906), and 0.05% Tween-20 (Sigma P-7949).
The Protein Buffer consisted of 20 mM Tris pH 7.6, 10% glycerol (Sigma G-5516) and 1 mM DTT.
The antibody mix consisted of 0.25% BSA (Sigma A-7906) in 1×PBS, 1/50,000 anti-Flag (Sigma F-3165), 1/100,000 of anti-Mouse IgG-HRP (Jackson Immunoresearch #115-035-146).
The substrate mix consisted of SuperSignal Substrate from Pierce (catalog number 37070ZZ) and was prepared by mixing 100 ml of the peroxide solution, 100 ml of the enhancer solution and 100 ml of Milli-Q® water.
In similar manner, autoubiquitination of the E3 MDM2 was determined (MDM2-FLAG). Further instruction in such assays can be found in U.S. patent application Ser. No. 10/108,767 (Publication No. US-2003-0104474 A1), which is incorporated herein in its entirety.

[4] = system: HeLa cells; assay: Cell proliferation assay, photographic image analysis of proliferation, apoptosis and death (PAD assay), HeLa; assay type: cell-based; conditions: 6 concentrations tested
Outline: (§1)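 Cells grown in RPMI with 5% FBS (2,000/well) and dosed 24 h after plating with 6.3-fold dilutions in duplicate (master plate 500× final, top 10 mM stock). After 48 h at 37 °C, cells formamide-fixed and DAPI-stained. Image analysis counted live, apoptotic and dead cells.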

[5] = system: A549 cells; assay: Non-photographic proliferation analysis (Promega Cell titer Aqueous), A549; assay type: cell-based; conditions: 6 concentrations tested
Outline: (§2)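 HeLa, A549 and HCT116 cells, 2,000 per well in RPMI with 5% FBS, were given compounds 24 h after plating as 6.3-fold duplicate dilutions from 10 mM stock, diluted 500-fold into the wells. After 48 h at 37° C, 5% CO2, Cell titer Aqueous reagent was added for 45 min and absorbance read at 490 nm.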

[6] = system: HCT116 cells; assay: Cell proliferation assay, photographic image analysis of proliferation, apoptosis and death (PAD assay), HCT116; assay type: cell-based; conditions: 6 concentrations tested
Outline: as §1

[7] = system: A549 cells; assay: Cell proliferation assay, photographic image analysis of proliferation, apoptosis and death (PAD assay), A549; assay type: cell-based; conditions: 6 concentrations tested
Outline: as §1

[8] = system: HeLa cells; assay: Non-photographic proliferation analysis (Promega Cell titer Aqueous), HeLa; assay type: cell-based; conditions: 6 concentrations tested
Outline: as §2

[9] = system: HCT116 cells; assay: Non-photographic proliferation analysis (Promega Cell titer Aqueous), HCT116; assay type: cell-based; conditions: 6 concentrations tested
Protocol: A549 (ATCC# CCL-185), HeLa (ATCC# CCL-2), HCT116 (ATCC# CCL-247), and H1299 (ATCC# CRL-5803) cells were maintained in T175 flasks following the ATCC recommended media and handling procedures. Flasks reaching approximately 70% confluency were trypsinized and resuspended in RPMI media (Cell-Gro catalog number 10-040-CM) modified to contain 5% FBS, 100 ug/mlPen/Strep (Cell-Gro catalog number 30-002-CL), and 0.3 mg/ml L-Glutamine (Cell-Gro catalog number 25-003-CL). A 20,000 cells/ml solution was made for plating. Cells were plated in black Packard 96 well plates by placing 100 μl per well (2,000 cells per well).
Compounds and additional media were added 24 hours after cell plating. A compound master plate was created with concentrations 500 times greater than the final concentration added to the cells. All compound testing was done in duplicate using 6.3 fold dilutions starting with 10 mM. All outside wells (and 4 internal wells) were DMSO controls. Taxol and at least one additional control were run on all plates. Three microliters of the compound master plate were added to deep well blocks containing 750 μl of RPMI media. One hundred microliters were transferred from the compound/media deep well blocks to the plated cells resulting in a 500 fold dilution of the compounds. Cells were grown at 37° C., 5% CO2 for 48 hours.
Some cell plates were treated with Promega Cell titer Aqueous 1 kit (promega—VWR catalog number G3580). In this case, 48 hours after the test compound were added, 100 μl of media were removed and 20 μl of cell titer reagent were added to all wells. Plates were incubated at 37° C. for 45 minutes prior to absorbance reads on the Wallac plate reader at 490 nm for 0.1 sec/well.

Sequence of MDM2 / p53 substrate (Q00987 whole entry): as above

Row | MDM2-P53 Flag 8 pt [1] | APC Flag 8 pt [2] | MDM2-Auto Flag 8 pt [3] | Compound | PAD Assay, HELA 6 pt [4] | Cell Titer-Aqueous, A549 6 pt [5] | PAD Assay, HCT116 6 pt [6] | PAD Assay, A549 6 pt [7] | Cell Titer-Aqueous, HELA 6 pt [8] | Cell Titer-Aqueous, HCT116 6 pt [9]
1 | + | + | + | O=[N+]([O-])c1ccc(Oc2c(Cl)cc(S(=O)(=O)Nc3cc(Br)cc(Br)n3)cc2Cl)c(Cl)c1 [Compound 218] | + | + | − | − | + | 
2 | + | + | + | O=[N+]([O-])c1ccc(Oc2c(Cl)cc(S(=O)(=O)/N=C(\NO)Nc3ccc(Cl)cc3)cc2Cl)c(Cl)c1 [Example 58, 3,5-dichloro-4-(2-chloro-4-nitrophenoxy)-N-[(1Z)-[(4-chlorophenyl)amino](hydroxy-amino)methylene]benzenesulfonamide] | + | + |  | + | + | +

Row | Compound | MDM2-P53 Flag 8 pt [1] | APC Flag 8 pt [2] | MDM2-Auto Flag 8 pt [3] | PAD Assay, HELA 6 pt [4] | Cell Titer-Aqueous, A549 6 pt [5] | PAD Assay, HCT116 6 pt [6] | PAD Assay, A549 6 pt [7] | Cell Titer-Aqueous, HELA 6 pt [8] | Cell Titer-Aqueous, HCT116 6 pt [9]
3 | O=[N+]([O-])c1ccc(Oc2c(Cl)cc(S(=O)(=O)Nc3cc([N+](=O)[O-])ccc3F)cc2Cl)c(Cl)c1 [Compound 220, 3,5-dichloro-4-(2-chloro-4-nitrophenoxy)-N-(2-fluoro-5-nitrophenyl)benzene sulfonamide] | − | + | + | + | + | + | + | + | 
